# Where two headings read alike, the source gives them in different places.
# How the values were obtained:
# Assay type in all cases: cell-based
# [1] = molecular target: protein kinases (human kinome) (Homo sapiens, UniProt Q05397)
# [2] = molecular target: T1, protein kinases (human kinome) (Homo sapiens, UniProt O95835); conditions: LATS1 O95835
# T1 sequence (O95835 1-1130): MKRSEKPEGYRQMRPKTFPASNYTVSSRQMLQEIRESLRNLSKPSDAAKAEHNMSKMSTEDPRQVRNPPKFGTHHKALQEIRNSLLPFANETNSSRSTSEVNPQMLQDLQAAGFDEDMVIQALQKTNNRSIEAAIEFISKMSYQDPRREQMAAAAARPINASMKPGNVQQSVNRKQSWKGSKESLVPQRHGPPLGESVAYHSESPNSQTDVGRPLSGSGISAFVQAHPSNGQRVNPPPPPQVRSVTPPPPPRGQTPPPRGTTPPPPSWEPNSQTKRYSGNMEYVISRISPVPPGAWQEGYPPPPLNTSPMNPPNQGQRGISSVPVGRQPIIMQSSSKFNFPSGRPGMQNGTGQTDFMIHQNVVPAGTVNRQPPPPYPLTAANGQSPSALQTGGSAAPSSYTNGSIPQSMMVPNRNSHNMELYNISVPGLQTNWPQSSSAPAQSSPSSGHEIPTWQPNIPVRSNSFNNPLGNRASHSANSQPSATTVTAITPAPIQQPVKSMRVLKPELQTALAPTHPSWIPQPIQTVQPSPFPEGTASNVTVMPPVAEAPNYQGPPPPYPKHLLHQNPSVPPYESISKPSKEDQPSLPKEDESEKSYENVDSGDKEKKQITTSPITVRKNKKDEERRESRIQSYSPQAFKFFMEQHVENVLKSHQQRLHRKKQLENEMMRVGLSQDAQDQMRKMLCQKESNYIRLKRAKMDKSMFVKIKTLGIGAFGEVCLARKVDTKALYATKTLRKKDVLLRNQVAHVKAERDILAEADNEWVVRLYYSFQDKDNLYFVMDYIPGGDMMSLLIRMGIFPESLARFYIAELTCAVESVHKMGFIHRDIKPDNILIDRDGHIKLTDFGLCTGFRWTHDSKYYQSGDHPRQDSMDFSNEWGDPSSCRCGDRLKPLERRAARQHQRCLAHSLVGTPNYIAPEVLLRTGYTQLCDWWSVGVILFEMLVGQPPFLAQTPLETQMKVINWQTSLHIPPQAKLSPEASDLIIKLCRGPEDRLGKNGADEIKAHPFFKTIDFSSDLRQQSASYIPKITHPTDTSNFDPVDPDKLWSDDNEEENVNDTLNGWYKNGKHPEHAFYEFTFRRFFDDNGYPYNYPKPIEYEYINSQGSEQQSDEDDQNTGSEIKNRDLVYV
# [3] = molecular target: T2, protein kinases (human kinome) (Homo sapiens, UniProt Q16854); conditions: DGUOK (Q16854)
# T2 sequence (Q16854 40-277): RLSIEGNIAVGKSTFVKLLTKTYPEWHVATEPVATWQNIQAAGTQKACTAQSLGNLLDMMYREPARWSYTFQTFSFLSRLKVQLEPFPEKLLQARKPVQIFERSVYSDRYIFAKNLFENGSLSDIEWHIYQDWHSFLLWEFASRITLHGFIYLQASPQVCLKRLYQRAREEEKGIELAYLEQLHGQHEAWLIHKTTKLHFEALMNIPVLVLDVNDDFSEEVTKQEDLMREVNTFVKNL
# [4] = molecular target: protein kinases (human kinome) (Homo sapiens, UniProt O94804); conditions: STK10 (O94804)
# [5] = molecular target: protein kinases (human kinome) (Homo sapiens, UniProt Q16659)
# [6] = molecular target: protein kinases (human kinome) (Homo sapiens, UniProt Q15208); conditions: for logFC: STK38 (Q15208)
# [7] = Accession Q05397, experiment wp105, direction down
# [8] = experiment wp103, direction down
# [9] = MAPK6 (Q16659), experiment wp131
# Chain of protein kinases (human kinome) (Homo sapiens, UniProt O94804) (O94804 whole entry): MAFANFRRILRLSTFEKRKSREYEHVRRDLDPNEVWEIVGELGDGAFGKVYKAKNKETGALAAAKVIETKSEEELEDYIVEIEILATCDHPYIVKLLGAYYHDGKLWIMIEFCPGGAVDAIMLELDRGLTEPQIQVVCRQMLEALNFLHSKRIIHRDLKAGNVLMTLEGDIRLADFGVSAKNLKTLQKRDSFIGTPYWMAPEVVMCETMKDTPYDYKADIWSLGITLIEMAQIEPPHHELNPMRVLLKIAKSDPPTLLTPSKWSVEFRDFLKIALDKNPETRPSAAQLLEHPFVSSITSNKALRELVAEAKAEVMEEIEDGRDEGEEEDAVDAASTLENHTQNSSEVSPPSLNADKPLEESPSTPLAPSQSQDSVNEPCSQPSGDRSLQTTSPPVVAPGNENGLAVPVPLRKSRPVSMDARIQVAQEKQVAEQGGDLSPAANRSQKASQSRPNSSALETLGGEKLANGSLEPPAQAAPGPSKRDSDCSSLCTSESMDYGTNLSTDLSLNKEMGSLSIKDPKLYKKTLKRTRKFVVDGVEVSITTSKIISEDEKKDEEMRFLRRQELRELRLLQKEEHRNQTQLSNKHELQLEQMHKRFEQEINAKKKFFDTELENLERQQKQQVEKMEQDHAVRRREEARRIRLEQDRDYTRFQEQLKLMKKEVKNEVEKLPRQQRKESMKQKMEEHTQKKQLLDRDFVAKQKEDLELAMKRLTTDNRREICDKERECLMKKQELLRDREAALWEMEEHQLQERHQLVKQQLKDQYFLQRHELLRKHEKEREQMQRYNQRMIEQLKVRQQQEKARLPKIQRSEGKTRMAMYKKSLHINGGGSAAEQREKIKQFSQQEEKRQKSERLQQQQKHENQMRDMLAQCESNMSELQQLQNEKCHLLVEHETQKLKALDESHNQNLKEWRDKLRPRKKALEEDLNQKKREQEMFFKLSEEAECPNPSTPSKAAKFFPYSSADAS
# Chain of protein kinases (human kinome) (Homo sapiens, UniProt Q15208) (Q15208 whole entry): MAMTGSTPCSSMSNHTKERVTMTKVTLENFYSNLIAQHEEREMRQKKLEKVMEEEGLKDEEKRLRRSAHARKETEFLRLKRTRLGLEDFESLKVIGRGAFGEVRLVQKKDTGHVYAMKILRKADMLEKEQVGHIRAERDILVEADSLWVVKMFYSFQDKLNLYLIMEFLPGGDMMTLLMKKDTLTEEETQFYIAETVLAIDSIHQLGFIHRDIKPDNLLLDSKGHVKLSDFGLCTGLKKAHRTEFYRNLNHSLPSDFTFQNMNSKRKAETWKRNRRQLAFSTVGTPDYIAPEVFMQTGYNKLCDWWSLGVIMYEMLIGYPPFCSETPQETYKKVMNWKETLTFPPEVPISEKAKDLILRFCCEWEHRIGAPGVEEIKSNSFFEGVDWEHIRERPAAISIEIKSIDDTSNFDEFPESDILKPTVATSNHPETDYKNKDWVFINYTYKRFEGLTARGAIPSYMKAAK
# Chain of protein kinases (human kinome) (Homo sapiens, UniProt Q05397) (Q05397 whole entry): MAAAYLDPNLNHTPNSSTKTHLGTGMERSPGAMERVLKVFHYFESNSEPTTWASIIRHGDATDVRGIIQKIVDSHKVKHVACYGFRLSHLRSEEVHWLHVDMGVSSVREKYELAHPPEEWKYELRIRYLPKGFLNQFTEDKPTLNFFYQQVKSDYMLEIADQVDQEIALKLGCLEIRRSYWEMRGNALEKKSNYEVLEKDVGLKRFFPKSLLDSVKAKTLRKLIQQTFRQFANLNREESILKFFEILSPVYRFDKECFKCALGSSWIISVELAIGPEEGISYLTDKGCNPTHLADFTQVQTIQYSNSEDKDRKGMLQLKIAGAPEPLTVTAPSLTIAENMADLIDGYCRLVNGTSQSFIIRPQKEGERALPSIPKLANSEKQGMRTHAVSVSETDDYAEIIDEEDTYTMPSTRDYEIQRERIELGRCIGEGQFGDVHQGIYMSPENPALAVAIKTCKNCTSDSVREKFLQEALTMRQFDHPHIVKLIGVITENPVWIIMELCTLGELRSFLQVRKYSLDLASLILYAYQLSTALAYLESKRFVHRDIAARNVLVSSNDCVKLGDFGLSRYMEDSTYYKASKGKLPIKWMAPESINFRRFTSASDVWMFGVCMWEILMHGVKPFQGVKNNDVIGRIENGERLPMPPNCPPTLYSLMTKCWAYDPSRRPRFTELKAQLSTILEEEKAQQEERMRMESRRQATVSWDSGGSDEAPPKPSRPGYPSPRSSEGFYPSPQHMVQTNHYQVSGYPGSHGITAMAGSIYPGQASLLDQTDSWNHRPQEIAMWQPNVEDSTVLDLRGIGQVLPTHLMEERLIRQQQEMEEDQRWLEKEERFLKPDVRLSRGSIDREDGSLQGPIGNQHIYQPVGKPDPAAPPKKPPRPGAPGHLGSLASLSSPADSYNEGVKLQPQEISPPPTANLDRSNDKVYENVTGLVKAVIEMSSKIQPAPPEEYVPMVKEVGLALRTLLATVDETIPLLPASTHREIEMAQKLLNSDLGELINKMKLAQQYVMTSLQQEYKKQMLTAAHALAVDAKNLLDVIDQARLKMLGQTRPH
# Chain of protein kinases (human kinome) (Homo sapiens, UniProt Q16659) (Q16659 whole entry): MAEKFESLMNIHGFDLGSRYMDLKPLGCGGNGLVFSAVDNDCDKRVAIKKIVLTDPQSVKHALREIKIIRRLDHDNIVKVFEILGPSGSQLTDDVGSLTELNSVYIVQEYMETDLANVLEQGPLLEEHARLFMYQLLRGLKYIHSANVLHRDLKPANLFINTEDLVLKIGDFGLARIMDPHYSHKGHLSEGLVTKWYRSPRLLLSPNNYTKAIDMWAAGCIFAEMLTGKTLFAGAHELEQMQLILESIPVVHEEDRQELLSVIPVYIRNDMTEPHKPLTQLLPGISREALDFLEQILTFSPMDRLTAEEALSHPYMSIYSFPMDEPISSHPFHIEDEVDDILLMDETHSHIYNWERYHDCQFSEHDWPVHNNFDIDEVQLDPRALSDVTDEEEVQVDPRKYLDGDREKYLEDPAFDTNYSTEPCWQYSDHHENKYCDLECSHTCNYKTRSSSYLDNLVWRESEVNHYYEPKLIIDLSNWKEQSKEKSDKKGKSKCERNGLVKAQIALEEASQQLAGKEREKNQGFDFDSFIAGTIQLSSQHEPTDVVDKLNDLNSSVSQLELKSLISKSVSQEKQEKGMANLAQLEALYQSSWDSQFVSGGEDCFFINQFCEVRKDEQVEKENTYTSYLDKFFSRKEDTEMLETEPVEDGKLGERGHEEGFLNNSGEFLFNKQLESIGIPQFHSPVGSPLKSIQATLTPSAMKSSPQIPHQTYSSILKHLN
structure (smiles),measurement,setting,value
"Cc1ccc(NC(=O)c2cccc(C(F)(F)F)c2)cc1N1Cc2cnc(Nc3ccc(N4CCN(Cc5cn(CCCCCOc6cccc7c6C(=O)N(C6CCC(=O)NC6=O)C7=O)nn5)CC4)nc3)nc2N(C)C1=O (centres unmarked) [DB0646, N-(3-(7-((6-(4-((1-(5-((2-(2,6-Dioxopiperidin-3-yl)-1,3-dioxoisoindolin-4-yl)oxy)pentyl)-1H-1,2,3-triazol-4-yl)methyl)piperazin-1-v)pyridin-3-yl)amino)-1-methyl-2-oxo-1,4-dihydropyrimido[4,5-d]pyrimidin-3(2H)-yl)-4-methylphenyl)-3-(trifluoromethyl)benzamide]",logFC PTK2,[1]; [7],−0.5575
same,logFC PTK2,"[1]; PTK2 Q05397, experiment wp105",−0.5575
same,logFC,"[1]; PTK2 Q05397, experiment wp114",−0.5538
same,logFC PTK2,"[1]; PTK2 Q05397, experiment wp114",−0.5538
same,logFC,"[1]; PTK2 Q05397, experiment wp172",−0.8047
same,logFC PTK2,"[1]; PTK2 Q05397, experiment wp172",−0.8047
same,logFC,"[2]; experiment wp160, 8 hr",−0.3382
same,logFC LATS1,"[2]; experiment wp160, 8 hr",−0.3382
CN(C)C(=O)c1cc2cnc(Nc3ccc(N4CCN(CCCCNC(=O)COc5cccc6c5C(=O)N(C5CCC(=O)NC5=O)C6=O)CC4)cn3)nc2n1C1CCCC1 (centres unmarked) [BSJ.04.132],logFC,[3]; experiment wp084,−0.5254
Nc1ncc(-c2ccc(S(=O)(=O)N(CCCNC(=O)CCOCCOCCOCCOCCOCCNc3cccc4c3C(=O)N(C3CCC(=O)NC3=O)C4=O)C3CC3)cc2)cc1-c1ccc2c(c1)CCNC2=O (centres unmarked) [WH.10417.099],logFC,[4]; experiment wp056,−0.4923
same,logFC,"[4]; experiment wp056, direction down",−0.4923
same,logFC,[4]; experiment wp103,−0.4751
same,logFC,[4]; [8],−0.4751
same,logFC,[4]; experiment wp107,−0.5661
same,logFC,"[4]; experiment wp107, direction down",−0.5661
C[C@@H]1C[C@@H](O)c2ncnc(N3CCN(C(=O)[C@H](CNCCCCCCCCCCc4cccc5c4C(=O)N(C4CCC(=O)NC4=O)C5=O)c4ccc(Cl)cc4)CC3)c21 (some centres unmarked) [INY.03.041.01],logFC,"[5]; MAPK6 (Q16659), experiment wp118",−0.6183
same,logFC MAPKG,"[5]; MAPKG Q16659, experiment wp118",−0.6183
Nc1ncnc2c1c(-c1ccc(Oc3ccccc3)cc1)nn2[C@H]1CC[C@H](N2CCN(CCOCCNC(=O)CNc3cccc4c3C(=O)N(C3CCC(=O)NC3=O)C4=O)CC2)CC1 (some centres unmarked) [SB1.G.181],logFC,[2]; experiment wp071,−1.273
same,logFC LATS1,[2]; experiment wp071,−1.273
CC(C)S(=O)(=O)c1ccccc1Nc1nc(Nc2ccc(N3CCN(CCOCCOCCC(=O)NCCNc4cccc5c4CN(C4CCC(=O)NC4=O)C5=O)CC3)cc2)ncc1Cl (centres unmarked) [TL13.97],logFC,[6]; experiment wp137,−0.3912
same,logFC of STK38 (Q15208),[6]; experiment wp137,−0.3912
same,logFC,[4]; experiment wp137,−0.3477
same,logFC,"[4]; experiment wp137, direction down",−0.3477
CC(C)(C)c1nc(-c2cccc(NS(=O)(=O)c3c(F)cccc3F)c2F)c(-c2ccnc(NCCOCCNC(=O)CCOCCOCCNc3cccc4c3C(=O)N(C3CCC(=O)NC3=O)C4=O)n2)s1 (centres unmarked) [DD.03.106],logFC,"[3]; experiment wp147, 4 uM",−0.5418
Cc1cc(Nc2ncc(Br)c(Nc3cccc(F)c3C(N)=O)n2)ccc1S(=O)(=O)NCCOCCOCCOCCOCCNc1cccc2c1C(=O)N(C1CCC(=O)NC1=O)C2=O (centres unmarked) [TMX.02.174],logFC,[6]; experiment wp146,−0.4117
same,logFC of STK38 (Q15208),[6]; experiment wp146,−0.4117
same,logFC,"[1]; PTK2 Q05397, experiment wp146",−0.8198
same,logFC PTK2,"[1]; PTK2 Q05397, experiment wp146",−0.8198
NC(=O)c1c(F)cccc1Nc1nc(Nc2ccc(S(=O)(=O)NCCOCCOCCOCCOCCNc3cccc4c3C(=O)N(C3CCC(=O)NC3=O)C4=O)cc2)ncc1Br (centres unmarked) [TMX.02.138],logFC,[6]; experiment wp146,−0.3476
same,logFC of STK38 (Q15208),[6]; experiment wp146,−0.3476
"Cc1ncsc1-c1ccc([C@H](C)NC(=O)[C@@H]2C[C@@H](O)CN2C(=O)[C@@H](NC(=O)CCCCCN2CCN(c3ccc(Nc4ncc5scc(-c6cccc(NS(C)(=O)=O)c6)c5n4)cc3)CC2)C(C)(C)C)cc1 [RSS0680, (2S,4R)-1-((S)-3,3-Dimethyl-2-(6-(4-(4-((7-(3-(methylsulfonamido)phenyl)thieno[3,2-d]pyrimidin-2-yl)amino)phenyl)piperazin-1-yl)hexanamido)butanoyl)-4-hydroxy-N—((S)-1-(4-(4-methylthiazol-5yl)phenyl)ethyl)pyrrolidine-2-carboxamide]",logFC,"[5]; MAPK6 Q16659, experiment wp080",−0.5033
same,logFC MAPK6,"[5]; MAPK6 Q16659, experiment wp080",−0.5033
same,logFC,[2]; experiment wp117,−0.4143
same,logFC LATS1,[2]; experiment wp117,−0.4143
Cc1ccc(C(=O)Nc2ccc(CN3CCN(CCCOCCOCCOCCNC(=O)COc4cccc5c4C(=O)N(C4CCC(=O)NC4=O)C5=O)CC3)c(C(F)(F)F)c2)cc1C#Cc1cnc2cccnn12 (centres unmarked) [SB1.G.187],logFC,[4]; experiment wp103,−0.3374
same,logFC,[4]; [8],−0.3374
CC(=O)c1c(C)c2cnc(Nc3ccc(N4CCN(CCOCCOCCOCCNC(=O)COc5cccc6c5C(=O)N(C5CCC(=O)NC5=O)C6=O)CC4)cn3)nc2n(C2CCCC2)c1=O (centres unmarked) [BSJ.03.123],logFC,[3]; experiment wp084,−0.4377
C=CCn1c(=O)c2cnc(Nc3ccc(N4CCN(CCCNc5cccc6c5C(=O)N(C5CCC(=O)NC5=O)C6=O)CC4)cc3)nc2n1-c1cccc(C(C)(C)O)n1 (centres unmarked) [ZNL.02.096],logFC,[3]; experiment wp118,−0.5337
CC(C)(C)c1nc(-c2cccc(NS(=O)(=O)c3c(F)cccc3F)c2F)c(-c2ccnc(NCCOCCNC(=O)CCOCCOCCNc3cccc4c3CN(C3CCC(=O)NC3=O)C4=O)n2)s1 (centres unmarked) [DD.03.107],logFC,"[3]; experiment wp147, 1 uM",−0.5245
same,logFC,"[3]; experiment wp147, 4 uM",−0.9678
Cc1ncsc1-c1ccc([C@H](C)NC(=O)[C@@H]2C[C@@H](O)CN2C(=O)[C@@H](NC(=O)CCOCCOCCN2CCN(c3ccc(Nc4ncc(Cl)c(Nc5ccccc5S(=O)(=O)C(C)C)n4)cc3)CC2)C(C)(C)C)cc1 [FMF.06.098.1],logFC,[5]; [9],−0.4123
same,logFC MAPK6,[5]; [9],−0.4123
same,logFC,"[1]; PTK2 Q05397, experiment wp114",−0.9477
same,logFC PTK2,"[1]; PTK2 Q05397, experiment wp114",−0.9477
CC(C)S(=O)(=O)c1ccccc1Nc1nc(Nc2ccc(N3CCN(CCOCCNC(=O)CNc4cccc5c4C(=O)N(C4CCC(=O)NC4=O)C5=O)CC3)cc2)ncc1Cl (centres unmarked) [SK.3.91],logFC,"[5]; MAPK6 (Q16659), experiment wp133, 2 hr",−0.8253
same,logFC,"[5]; MAPK6 (Q16659), experiment wp133, 2 hr, direction down",−0.8253
same,logFC,"[5]; MAPK6 (Q16659), experiment wp133, 4 hr",−1.614
same,logFC,"[5]; MAPK6 (Q16659), experiment wp133, 4 hr, direction down",−1.614
same,logFC,"[5]; MAPK6 Q16659, experiment wp103",−1.525
same,logFC MAPK6,"[5]; MAPK6 Q16659, experiment wp103",−1.525
same,logFC,"[5]; MAPK6 Q16659, experiment wp107",−1.345
same,logFC MAPK6,"[5]; MAPK6 Q16659, experiment wp107",−1.345
same,logFC PTK2,[1]; [7],−2.958
same,logFC PTK2,"[1]; PTK2 Q05397, experiment wp105",−2.958
same,logFC,"[1]; PTK2 Q05397, experiment wp114",−1.684
same,logFC PTK2,"[1]; PTK2 Q05397, experiment wp114",−1.684
same,logFC,"[1]; PTK2 Q05397, experiment wp172",−2.689
same,logFC PTK2,"[1]; PTK2 Q05397, experiment wp172",−2.689
same,logFC,[2]; experiment wp105,−0.3335
same,logFC LATS1,[2]; experiment wp105,−0.3335
same,logFC,[2]; experiment wp107,−0.4609
same,logFC LATS1,[2]; experiment wp107,−0.4609
same,logFC,"[2]; experiment wp160, 4 hr",−0.3463
same,logFC LATS1,"[2]; experiment wp160, 4 hr",−0.3463
CC(C)S(=O)(=O)c1ccccc1Nc1nc(Nc2ccc(N3CCN(CCOCCOCCNC(=O)CNc4cccc5c4C(=O)N(C4CCC(=O)NC4=O)C5=O)CC3)cc2)ncc1Cl (centres unmarked) [TL12.186],logFC,[5]; [9],−1.488
same,logFC,"[5]; MAPK6 (Q16659), experiment wp131, direction down",−1.488
same,logFC,[4]; experiment wp016,−0.3819
same,logFC,"[4]; experiment wp016, direction down",−0.3819

# Source: US20240269139A1, “COMPOUNDS FOR TARGETED PROTEIN DEGRADATION OF KINASES” (DANA-FARBER CANCER INSTITUTE, INC., priority 2020, published 2024)
